{"source": "patent US20170281596A1", "about": "“PHARMACEUTICAL COMBINATION CONTAINING AN ANALGESIC AGENT AND AN ANTISPASMODIC AGENT” (priority 2014, published 2017)", "origin": "cited, not measured here", "data": [{"smiles": "O=C(c1ccccc1)c1ccc2n1CCC2C(=O)O", "note": "(centres unmarked) [Ketorolac, carboxylic acid-5-Benzoyl-2,3-dihydro-1H-pyrrolisine-1,2-amino-2-hydroxymethyl-1,3-propanediol]", "values": [{"measurement": "time at which the plasma concentration level is reached", "setting": "administered every 6 hours", "value": 24, "unit": "h"}, {"measurement": "urinary elimination of Ketorolac and its metabolites", "setting": "main route of elimination, remainder through feces", "value": 92, "unit": "%"}]}]}
